According to patent US11192867B2, “Microbiocidal oxadiazole derivatives” (SYNGENTA PARTICIPATIONS AG, priority 2016, dated 2021):

Legend:
Phakopsora pachyrhizi = assay: Fungicidal activity against Phakopsora pachyrhizi / soybean / leaf disc preventative (Asian soybean rust); assay type: in vivo; conditions: foliar, 200 ppm in the applied formulation, soybean leaf disks, vs untreated control, read-out: disease control
Procedure: Leaf disks or leaf segments of various plant species are cut from plants grown in a greenhouse. The cut leaf disks or segments are placed in multiwell plates (24-well format) onto water agar. The leaf disks are sprayed with a test solution before (preventative) or after (curative) inoculation. Compounds to be tested are prepared as DMSO solutions (max. 10 mg/ml) which are diluted to the appropriate concentration with 0.025% Tween20 just before spraying. The inoculated leaf disks or segments are incubated under defined conditions (temperature, relative humidity, light, etc.) according to the respective test system. A single evaluation of disease level is carried out 3 to 14 days after inoculation, depending on the pathosystem. Percent disease control relative to the untreated check leaf disks or segments is then calculated. Soybean leaf disks are placed on water agar in multiwell plates (24-well format) and sprayed with the formulated test compound diluted in water. One day after application leaf discs are inoculated by spraying a spore suspension on the lower leaf surface. After an incubation period in a climate cabinet of 24-36 hours in darkness at 20° C. and 75% rh leaf disc are kept at 20° C. with 12 hours light/12 hours and 75% rh. The activity of a compound is assessed as percent disease control compared to untreated when an appropriate level of disease damage appears in untreated check leaf disks (12 to 14 days after application). The following compounds at 200 ppm in the applied formulation give at least 80% disease control in this test when compared to untreated control leaf disks under the same conditions, which show extensive disease development.

[1] = system: Puccinia recondita f. sp. Tritici; assay: Fungicidal activity against Puccinia recondita f. sp. Tritici / wheat / leaf disc preventative (brown rust); assay type: in vivo; conditions: foliar, 200 ppm in the applied formulation, wheat leaf segments cv. Kanzler, inoculated 1 day after application, vs untreated control, read-out: disease control
Procedure: Leaf disks or leaf segments of various plant species are cut from plants grown in a greenhouse. The cut leaf disks or segments are placed in multiwell plates (24-well format) onto water agar. The leaf disks are sprayed with a test solution before (preventative) or after (curative) inoculation. Compounds to be tested are prepared as DMSO solutions (max. 10 mg/ml) which are diluted to the appropriate concentration with 0.025% Tween20 just before spraying. The inoculated leaf disks or segments are incubated under defined conditions (temperature, relative humidity, light, etc.) according to the respective test system. A single evaluation of disease level is carried out 3 to 14 days after inoculation, depending on the pathosystem. Percent disease control relative to the untreated check leaf disks or segments is then calculated. Wheat leaf segments cv. Kanzler were placed on agar in multiwell plates (24-well format) and sprayed with the formulated test compound diluted in water. The leaf disks were inoculated with a spore suspension of the fungus 1 day after application. The inoculated leaf segments were incubated at 19° C. and 75% relative humidity (rh) under a light regime of 12 hours light/12 hours darkness in a climate cabinet and the activity of a compound was assessed as percent disease control compared to untreated when an appropriate level of disease damage appears in untreated check leaf segments (7 to 9 days after application). The following compounds at 200 ppm in the applied formulation give at least 80% disease control in this test when compared to untreated control leaf disks under the same conditions, which show extensive disease development.

[2] = system: Glomerella lagenarium (Colletotrichum lagenarium); assay: Fungicidal activity against Glomerella lagenarium (Colletotrichum lagenarium) liquid culture / cucumber / preventative (anthracnose); assay type: cell-based; conditions: Colletotrichum orbiculare, 72 h; 20 ppm in the applied formulation; liquid culture (PDB), growth inhibition measured photometrically 3 to 4 days after application; vs untreated control; read-out: disease control
Procedure: Mycelia fragments or conidia suspensions of a fungus prepared either freshly from liquid cultures of the fungus or from cryogenic storage, are directly mixed into nutrient broth. DMSO solutions of the test compound (max. 10 mg/ml) are diluted with 0.025% Tween20 by a factor of 50 and 10 μl of this solution is pipetted into a microtiter plate (96-well format). The nutrient broth containing the fungal spores/mycelia fragments is then added to give an end concentration of the tested compound. The test plates are incubated in the dark at 24° C. and 96% relative humidity. The inhibition of fungal growth is determined photometrically after 2 to 7 days, depending on the pathosystem, and percent antifungal activity relative to the untreated check is calculated.
Conidia of the fungus from cryogenic storage are directly mixed into nutrient broth (PDB—potato dextrose broth). After placing a (DMSO) solution of test compound into a microtiter plate (96-well format), the nutrient broth containing the fungal spores is added. The test plates are incubated at 24° C. and the inhibition of growth is measured photometrically 3 to 4 days after application.
The following compounds at 20 ppm in the applied formulation give at least 80% disease control in this test when compared to untreated control under the same conditions, which show extensive disease development.

O=C(NCC=NOCc1ccccc1)c1ccc(-c2noc(C(F)(F)F)n2)cc1 [Compound 1.90, N-(2-benzyloxyimino-ethyl)-4-[5-(trifluoromethyl)-1,2,4-oxadiazol-3-yl]benzamide]
≥ 80%: pest or weed control at 200 ppm (Phakopsora pachyrhizi) | pest or weed control at 200 ppm [1] | inhibition of growth at 20 ppm [2]

O=C(NCC=NOCC=C(Cl)Cl)c1ccc(-c2noc(C(F)(F)F)n2)cc1 [Compound 1.79, N-[2-(3,3-dichloroallyloxy-imino)ethyl]-4-[5-(trifluoromethyl)-1,2,4-oxadiazol-3-yl]benzamide]
≥ 80%: pest or weed control at 200 ppm (Phakopsora pachyrhizi) | pest or weed control at 200 ppm [1] | inhibition of growth at 20 ppm [2]

CC(CNC(=O)c1ccc(-c2noc(C(F)(F)F)n2)cc1)=NOC/C=C\Cl [Compound 1.124, N-[2-[(Z)-3-chloroallyloxy]iminopropyl]-4-[5-(trifluoromethyl)-1,2,4-oxadiazol-3-yl]benzamide]
≥ 80%: pest or weed control at 200 ppm (Phakopsora pachyrhizi) | pest or weed control at 200 ppm [1] | inhibition of growth at 20 ppm [2]

C=C(Cl)CON=CC(C)NC(=O)c1ccc(-c2noc(C(F)(F)F)n2)cc1 (stereo not drawn) [Compound 1.56, N-[2-(2-chloroallyloxy-imino)-1-methyl-ethyl]-4-[5-(trifluoromethyl)-1,2,4-oxadiazol-3-yl]benzamide]
≥ 80%: pest or weed control at 200 ppm (Phakopsora pachyrhizi) | pest or weed control at 200 ppm [1] | inhibition of growth at 20 ppm [2]

CC(C)=CCON=CCNC(=O)c1ccc(-c2noc(C(F)(F)F)n2)cc1 [Compound 1.80, N-[2-(3-methylbut-2-enoxyimino)ethyl]-4-[5-(trifluoromethyl)-1,2,4-oxadiazol-3-yl]benzamide]
≥ 80%: pest or weed control at 200 ppm (Phakopsora pachyrhizi) | pest or weed control at 200 ppm [1] | inhibition of growth at 20 ppm [2]

O=C(NCC=NOCc1ccccc1Cl)c1ccc(-c2noc(C(F)(F)F)n2)cc1 [Compound 1.67, N-[2-[(2-chlorophenyl)methoxyimino]ethyl]-4-[5-(trifluoromethyl)-1,2,4-oxadiazol-3-yl]benzamide]
≥ 80%: pest or weed control at 200 ppm (Phakopsora pachyrhizi) | pest or weed control at 200 ppm [1] | inhibition of growth at 20 ppm [2]

CC(C=NOC1CCCCO1)NC(=O)c1ccc(-c2noc(C(F)(F)F)n2)cc1 (stereo not drawn) [Compound 1.25, N-(1-methyl-2-tetrahydropyran-2-yloxyimino-ethyl)-4-[5-(trifluoromethyl)-1,2,4-oxadiazol-3-yl]benzamide]
≥ 80%: pest or weed control at 200 ppm (Phakopsora pachyrhizi) | pest or weed control at 200 ppm [1] | inhibition of growth at 20 ppm [2]

COc1cccc(CON=CCNC(=O)c2ccc(-c3noc(C(F)(F)F)n3)cc2)c1 [Compound 1.62, N-[2-[(3-methoxyphenyl)methoxyimino]ethyl]-4-[5-(trifluoromethyl)-1,2,4-oxadiazol-3-yl]benzamide]
≥ 80%: pest or weed control at 200 ppm (Phakopsora pachyrhizi) | pest or weed control at 200 ppm [1] | inhibition of growth at 20 ppm [2]

CC(CNC(=O)c1ccc(-c2noc(C(F)(F)F)n2)cc1)=NOC(C)(C)C [Compound 1.132, N-(2-tert-butoxyiminopropyl)-4-[5-(trifluoromethyl)-1,2,4-oxadiazol-3-yl]benzamide]
≥ 80%: pest or weed control at 200 ppm (Phakopsora pachyrhizi) | pest or weed control at 200 ppm [1] | inhibition of growth at 20 ppm [2]

CC(CNC(=O)c1ccc(-c2noc(C(F)(F)F)n2)cc1)=NOCC(F)(F)F [Compound 1.139, N-[2-(2,2,2-trifluoroethoxy-imino)propyl]-4-[5-(trifluoromethyl)-1,2,4-oxadiazol-3-yl]benzamide]
≥ 80%: pest or weed control at 200 ppm (Phakopsora pachyrhizi) | pest or weed control at 200 ppm [1] | inhibition of growth at 20 ppm [2]

COc1ccc(CON=CCNC(=O)c2ccc(-c3noc(C(F)(F)F)n3)cc2)cc1 [Compound 1.64, N-[2-[(4-methoxyphenyl)methoxyimino]ethyl]-4-[5-(trifluoromethyl)-1,2,4-oxadiazol-3-yl]benzamide]
≥ 80%: pest or weed control at 200 ppm (Phakopsora pachyrhizi) | pest or weed control at 200 ppm [1] | inhibition of growth at 20 ppm [2]

CC(C=NOC(C)(C)C)NC(=O)c1ccc(-c2noc(C(F)(F)F)n2)cc1 (stereo not drawn) [Compound 1.45, N-(2-tert-butoxyimino-1-methyl-ethyl)-4-[5-(trifluoromethyl)-1,2,4-oxadiazol-3-yl]benzamide]
≥ 80%: pest or weed control at 200 ppm (Phakopsora pachyrhizi) | pest or weed control at 200 ppm [1] | inhibition of growth at 20 ppm [2]

O=C(O)CON=CCNC(=O)c1ccc(-c2noc(C(F)(F)F)n2)cc1 [Compound 1.65, 2-[2-[[4-[5-(trifluoromethyl)-1,2,4-oxadiazol-3-yl]benzoyl]amino]ethylideneamino] oxyacetic acid]
≥ 80%: pest or weed control at 200 ppm (Phakopsora pachyrhizi) | pest or weed control at 200 ppm [1] | inhibition of growth at 20 ppm [2]

CC(C)=CCON=C(C)CNC(=O)c1ccc(-c2noc(C(F)(F)F)n2)cc1 [Compound 1.123, N-[2-(3-methylbut-2-enoxyimino)propyl]-4-[5-(trifluoromethyl)-1,2,4-oxadiazol-3-yl]benzamide]
≥ 80%: pest or weed control at 200 ppm (Phakopsora pachyrhizi) | pest or weed control at 200 ppm [1] | inhibition of growth at 20 ppm [2]

CCCCON=CC(C)NC(=O)c1ccc(-c2noc(C(F)(F)F)n2)cc1 (stereo not drawn) [Compound 1.40, N-(2-butoxyimino-1-methyl-ethyl)-4-[5-(trifluoromethyl)-1,2,4-oxadiazol-3-yl]benzamide]
≥ 80%: pest or weed control at 200 ppm (Phakopsora pachyrhizi) | pest or weed control at 200 ppm [1] | inhibition of growth at 20 ppm [2]

CC(C=NOC(C)C)NC(=O)c1ccc(-c2noc(C(F)(F)F)n2)cc1 (stereo not drawn) [Compound 1.50, N-(2-isopropoxyimino-1-methyl-ethyl)-4-[5-(trifluoromethyl)-1,2,4-oxadiazol-3-yl]benzamide]
≥ 80%: pest or weed control at 200 ppm (Phakopsora pachyrhizi) | pest or weed control at 200 ppm [1] | inhibition of growth at 20 ppm [2]

C=C(Cl)CON=C(C)CNC(=O)c1ccc(-c2noc(C(F)(F)F)n2)cc1 [Compound 1.144, N-[2-(2-chloroallyloxy-imino)propyl]-4-[5-(trifluoromethyl)-1,2,4-oxadiazol-3-yl]benzamide]
≥ 80%: pest or weed control at 200 ppm (Phakopsora pachyrhizi) | pest or weed control at 200 ppm [1] | inhibition of growth at 20 ppm [2]

O=C(NCC=NOCc1ccccc1F)c1ccc(-c2noc(C(F)(F)F)n2)cc1 [Compound 1.69, N-[2-[(2-fluorophenyl)methoxyimino]ethyl]-4-[5-(trifluoromethyl)-1,2,4-oxadiazol-3-yl]benzamide]
≥ 80%: pest or weed control at 200 ppm (Phakopsora pachyrhizi) | pest or weed control at 200 ppm [1] | inhibition of growth at 20 ppm [2]
